In US11149055B2, “Crystal form of lanosterol prodrug compound and application thereof” (GUANGZHOU OCUSUN OPHTHALMIC BIOTECHNOLOGY CO., LTD., priority 2018, dated 2021):
Like-named read-outs stand apart in the source and are kept apart here.

Legend:
[1] = Hygroscopicity study by Dynamic Vapor Sorption (DVS); format: physicochemical; settings: 25° C. and 80% RH
Description: Dynamic Vapor Sorption (DVS)
Detection method: samples (10 mg to 20 mg) were placed in a DVS sample tray for testing.
Equilibrium: dm/dt: 0.01%/min: (Shortest: 10 min, longest: 180 min)
RH (%) gradient for testing: 10%
RH (%) gradient range for testing: 0% to 90% to 0%
The hygroscopicity was evaluated using the following scales:
SMS DVS Advantage Dynamic Vapor Sorption System
10 to 15 mg of the crystal form A of the compound of formula (I) was placed in the DVS sample tray for testing.

[2] = Pre-stability experiment (influencing factors: high temperature, high humidity, light); format: physicochemical; settings: 60° C. open; relative humidity 92.5% open; light 1 ICH; up to 10 days
Description: The crystal form A of the compound of formula (I) was placed under the following 3 conditions and tested for appearance, XRPD, content and related substances at different time points.
10 mg of the crystal form A of the compound of formula (I) was accurately weighted and placed in a sample bottle, and then spread to form a thin layer. The samples were placed under 60° C., 92.5% RH, the mouth of the bottle was directly wrapped with aluminum foil which was punctured to get some small holes to ensure that the sample can fully contact the ambient air. The samples were placed respectively in a dry box and a glass jar containing saturated potassium nitrate solution. The illuminated sample (open, not covered with aluminum foil) and the illuminated control sample (open, the sample bottle was entirely covered with aluminum foil) were placed in the light box. 2 parts of the sample were weighted at each time point as the formal test sample. In addition, about 5 mg of the crystal form A of the compound of formula (I) was weighted for XRPD testing; the sample bottle was wrapped with aluminum foil which was punctured to get some small holes; the samples were also placed in the corresponding drying box and the glass jar containing saturated potassium nitrate solution. […]

[3] = test system: ultraviolet-induced New Zealand rabbit cataract model; experiment: Lens transparency test in vitro, ultraviolet-induced cataract model; format: in vivo; settings: after 42 days of administration, left eye as self-control
Description: (§1) Adult New Zealand rabbits 2.0-2.5 kg, normal grade, male and female, a total of 25.
(§2) The experimental rabbits were randomly divided into 5 groups with 5 rabbits per group.
(§3) 2) Model control group (MC): 313 nm UV irradiation for 24 hours to make model, then drug-free blank eye drops were dripped into the right eye 3 times every day for 42 days.
(§4) 3) Positive control group (PC): 313 nm UV irradiation for 24 hours to make model, then Kary Uni eye drops (Santen Pharmaceutical Co., Ltd in Japan) were dripped into the right eye 3 times every day for 42 days.
(§5) 4) Lanosterol eye drops treatment group (LT): 313 nm UV irradiation for 24 hours to make model, then lanosterol eye drops were dripped into the right eye 3 times every day for 42 days.
(§6) 5) Lanosterol prodrug 026 eye drops treatment group (026): 313 nm UV irradiation for 24 hours to make model, then the lanosterol prodrug 026 eye drops were dripped into the right eye 3 times every day for 42 days.
2) Lens transparency test in vitro: on the last day, the animal's eyeball was dissected, the lens containing the capsule was completely separated, and the lens was placed on a grid paper (2.12×2.12 mm). The photographs show the sharpness of the grid photographed through the lens.

[4] = test system: lens glutathione peroxidase (GSH-PX) activity; experiment: Lens glutathione peroxidase (GSH-PX) activity assay, ultraviolet-induced cataract model; format: in vivo, New Zealand rabbit; settings: after 42 days of administration
Description: as §1, §2, §3, §4, §5, §6
(§7) 3) Glutathione peroxidase (GSH-PX) activity assay: GSH-PX activity of the isolated rabbit lens in each group was determined by the method provided in the specification of GSH-PX activity detection kit (Nanjing Jiancheng Bioengineering Institute). The experimental data were analyzed by One-Way ANOVA with SPSS statistical software. The LSD method was used to compare the groups, and the statistical difference level was p<0.05.

[5] = Penetration of ocular drugs in the body and conversion to lanosterol (aqueous humor concentration after eye drops); format: in vivo, New Zealand white rabbit; settings: for AUC: New Zealand white, rabbit; for Penetration into the aqueous humor: from the cornea or through other routes
Description: In this study, New Zealand white rabbits (body weight was more than 2 kg, aged more than 12 weeks) were used as experimental animals. Each compound was studied in two New Zealand white rabbits. Each rabbit was instilled with 50 μL of eye drops in each eye, three eyes were used to collect aqueous humor samples and one eye was used as a backup. The formula of the eye drops was 1.2% hydroxypropyl methylcellulose (E5 size), 20.5% poloxamer (P407 size), 1.6% poloxamer (P188 size), the concentration of the compound was 5 mM, and the eye drops were homogeneous suspensions. After the eye drops were dripped into the rabbit's eyes, the anterior aqueous humor was collected 0.5, 2, 4 and 6 hours after administration. The volume of each sample was not more than 50 μL. Each animal was given mild anesthesia before collecting samples. Three samples were collected at each time point. The collected aqueous humor samples were stored in dry ice immediately after collection or stored in a refrigerator at −80±10° C. After the sample collection, the animals were euthanized. The concentration of the compound in each sample was determined using a triple quadrupole mass spectrometer (API 4000). Tables 3 and 4 show the DMPK determination conditions in vivo; Tables 5 and 6 show the drug concentration in the aqueous humor after compound lanosterol (parent drug) and the prodrug compound were dripped into eyes ([…]).

[6] = test system: sodium selenite-induced neonatal New Zealand rabbit cataract model; experiment: Lens transparency test in vitro, sodium selenite-induced cataract model; format: in vivo; settings: after 42 days of administration, left eye as self-control
Description: (§8) P7 days old neonatal New Zealand rabbits, normal grade, and 5 young rabbits per litter were breast-fed with a mother rabbit.
(§9) The experimental young rabbits were randomly divided into 5 groups with 5 rabbits per group.
(§10) 2) Model control group (MC): in the P10 day, the young rabbits were injected subcutaneously with sodium selenite solution (in physiological saline) at a dose of 20 μmol/kg body weight, and after the P15 day, drug-free blank eyes drops were dripped into the right eye 3 times every day for 42 days.
as §10, with “3) Positive” for “2) Model”, “(PC):” for “(MC):”, “Kary Uni eye” for “drug-free blank eyes”, “drops (Santen Pharmaceutical Co., Ltd in Japan)” for “drops”
as §10, with “4) Lanosterol eye drops treatment” for “2) Model control”, “(LT):” for “(MC):”, “lanosterol eye” for “drug-free blank eyes”, “days. […]” for “days.”

[7] = test system: lens glutathione peroxidase (GSH-PX) activity; experiment: Lens glutathione peroxidase (GSH-PX) activity assay, sodium selenite-induced cataract model; format: in vivo, New Zealand rabbit; settings: after 42 days of administration
Description: as §8, §9, §10
as §10, with “3) Positive” for “2) Model”, “(PC):” for “(MC):”, “Kary Uni eye” for “drug-free blank eyes”, “drops (Santen Pharmaceutical Co., Ltd in Japan)” for “drops”
as §10, with “4) Lanosterol eye drops treatment” for “2) Model control”, “(LT):” for “(MC):”, “lanosterol eye” for “drug-free blank eyes”
as §10, with “5) Lanosterol prodrug 026 eye drops treatment” for “2) Model control”, “(026, the compound of formula (I)):” for “(MC):”, “lanosterol prodrug 026 eye” for “drug-free blank eyes”
as §7, with “was” for “were”

[8] = test system: ultraviolet-induced New Zealand rabbit cataract model; experiment: Slit lamp observation, ultraviolet-induced cataract model; format: in vivo; settings: ultraviolet model (313 nm UV 24 hours); eye drops right eye 3 times every day for 42 days
Description: as §1, §2, §3, §4, §5, §6

[9] = test system: sodium selenite-induced neonatal New Zealand rabbit cataract model; experiment: Slit lamp observation, sodium selenite-induced cataract model; format: in vivo; settings: eye drops right eye 3 times every day for 42 days
Description: as §8, §9, §10
as §10, with “3) Positive” for “2) Model”, “(PC):” for “(MC):”, “Kary Uni eye” for “drug-free blank eyes”, “drops (Santen Pharmaceutical Co., Ltd in Japan)” for “drops”
as §10, with “4) Lanosterol eye drops treatment” for “2) Model control”, “(LT):” for “(MC):”, “lanosterol eye” for “drug-free blank eyes”, “days. […]” for “days.”

CC(C)=CCC[C@@H](C)[C@H]1CC[C@@]2(C)C3=C(CC[C@]12C)[C@@]1(C)CC[C@H](OC(=O)c2ccccc2O)C(C)(C)C1CC3 (some centres unmarked)
Hygroscopic weight gain (ΔW) [1]: 0.747%
Hygroscopicity scale [1]: slightly hygroscopic
Crystal form stability (appearance, XRPD, content, related substances) [2]: the crystal form has not changed after the experiment, and its stability is good

CC(C)=CCC[C@@H](C)[C@H]1CC[C@@]2(C)C3=C(CC[C@]12C)[C@@]1(C)CC[C@H](O)C(C)(C)[C@@H]1CC3 [Lanosterol]
Lens transparency in vitro of administered right eye [3]: no significant change in lens transparency
Effect on lens GSH-PX activity compared with the other treatments [4]: significantly lower than that of 026 and Kary Uni
Lens GSH-PX activity vs MC group [4]: no statistical difference compared to the MC group
AUC ([5]; aqueous humor, topical, 250 nmol per eye, 250 nmol lanosterol dripped into each eye, read-out: AUC (exposure amount) of lanosterol in the aqueous humor): 1.78 µM·h
Penetration into the aqueous humor ([5]; eye drops): capable of penetrating into the aqueous humor
Lens transparency in vitro of administered right eye [6]: no significant change in lens transparency
Effect on lens GSH-PX activity compared with the other treatments [7]: significantly lower than that of 026 and Kary Uni
Lens GSH-PX activity vs MC group [7]: no statistical difference compared to the MC group
Cataract symptoms by slit lamp observation, after vs before administration [8]: no evident change
Cataract symptoms by slit lamp observation, after vs before administration [9]: no evident change

CC(C)=CCC[C@@H](C)[C@H]1CC[C@@]2(C)C3=C(CC[C@]12C)[C@@]1(C)CC[C@H](OC(=O)c2ccccc2O)C(C)(C)C1CC3 (some centres unmarked) [the compound of formula (I)]
Lens transparency in vitro of administered right eye [3]: significantly higher than that of the left eye
Effect on lens GSH-PX activity compared with the other treatments [4]: better than that of Kary Uni
Lens GSH-PX activity vs MC group [4]: capable of increasing the GSH-PX activity of the lens
Average concentration of the compound of formula (I) in the aqueous humor ([5]; 250 nmol the compound of formula (I) dripped into each eye, analyte prodrug, 0.5 hour): 41.0 nM
Average concentration of the compound of formula (I) in the aqueous humor ([5]; 250 nmol the compound of formula (I) dripped into each eye, analyte prodrug, 2 hour): 33.3 nM
Average concentration of the compound of formula (I) in the aqueous humor ([5]; 250 nmol the compound of formula (I) dripped into each eye, analyte prodrug, 4 hour): 25.5 nM
Average concentration of the compound of formula (I) in the aqueous humor ([5]; 250 nmol the compound of formula (I) dripped into each eye, analyte prodrug, 6 hour): BQL
AUC ([5]; in vivo, 250 nmol the compound of formula (I) dripped into each eye, analyte prodrug, read-out: AUC (exposure amount) of the compound of formula (I) in the aqueous humor): 0.124 µM·h
Conversion into the parent drug lanosterol ([5]; during the infiltration process): capable of converting into the parent drug lanosterol
Lanosterol concentration and exposure in the aqueous humor compared with lanosterol eye drops ([5]; eye drops): higher concentration and exposure of lanosterol in the aqueous humor
Penetration into the aqueous humor ([5]; eye drops): capable of penetrating into the aqueous humor
Lens transparency in vitro of administered right eye [6]: significantly higher than that of the left eye
Effect on lens GSH-PX activity compared with the other treatments [7]: better than that of Kary Uni
Lens GSH-PX activity vs MC group [7]: capable of increasing the GSH-PX activity of the lens
Cataract symptoms by slit lamp observation, after vs before administration [8]: cataract symptoms were significantly reduced
Cataract symptoms by slit lamp observation, after vs before administration [9]: cataract symptoms were significantly reduced
